# Test results taken from article PMC3831620 (Naunyn-Schmiedeberg's archives of pharmacology, 2012).
# Where two headings read alike, the source gives them in different places.
# Assays:
# [1] = system: any adenosine receptor subtype; test: Radioligand competition binding, stated for any adenosine receptor subtype; design: species or system human; details: for binding affinity in words: any adenosine receptor subtype, data not shown; for Ki: read-out: Ki at any of the adenosine receptor subtypes, any subtype
# [2] = system: adenosine receptor subtype A1; details: murine models; ref Lorenzen et al. 1998; cited from earlier work
# adenosine A3 receptor = molecular target: T1, adenosine A3 receptor (Homo sapiens, UniProt P0DMS8); test: Radioligand competition binding, [3H]HEMADO, membranes of transfected CHO cells
# T1 sequence (P0DMS8 1-318): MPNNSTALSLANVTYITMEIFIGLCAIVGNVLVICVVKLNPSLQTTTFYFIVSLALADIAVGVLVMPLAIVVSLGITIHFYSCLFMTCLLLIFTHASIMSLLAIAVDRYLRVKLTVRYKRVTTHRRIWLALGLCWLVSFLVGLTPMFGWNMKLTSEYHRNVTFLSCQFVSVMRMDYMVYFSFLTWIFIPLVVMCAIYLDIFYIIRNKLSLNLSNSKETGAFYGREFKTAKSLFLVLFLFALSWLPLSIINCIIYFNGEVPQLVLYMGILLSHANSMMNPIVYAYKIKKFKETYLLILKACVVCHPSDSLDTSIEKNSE
# A2A adenosine receptor = A2A adenosine receptor (Homo sapiens, UniProt P29274); test: A2A receptor-mediated stimulation of adenylyl cyclase, CHO membranes; format: biochemical; details: for efficacy compared to the full agonist NECA: A2A stimulation of adenylyl cyclase, 1 μM NECA control; for agonist character at the A2A adenosine receptor: compared to NECA
# Sequence of A2A adenosine receptor (P29274 whole entry): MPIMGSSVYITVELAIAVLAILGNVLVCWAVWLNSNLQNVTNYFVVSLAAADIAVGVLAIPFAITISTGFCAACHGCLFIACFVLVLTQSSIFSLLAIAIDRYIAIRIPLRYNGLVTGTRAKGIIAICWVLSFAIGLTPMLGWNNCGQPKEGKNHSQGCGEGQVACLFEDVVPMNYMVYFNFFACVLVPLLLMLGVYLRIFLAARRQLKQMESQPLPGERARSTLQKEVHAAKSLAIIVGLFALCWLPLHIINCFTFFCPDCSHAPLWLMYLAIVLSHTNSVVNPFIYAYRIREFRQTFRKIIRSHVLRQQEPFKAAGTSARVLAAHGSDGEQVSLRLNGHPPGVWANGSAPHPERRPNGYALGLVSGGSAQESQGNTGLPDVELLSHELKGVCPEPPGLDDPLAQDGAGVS
# A1 receptor = molecular target: T2, A1 receptor (Homo sapiens, UniProt P30542); format: biochemical; details: for maximal inhibition of forskolin-stimulated adenylyl cyclase: compared with CCPA, n = 3
# T2 sequence (P30542 1-326): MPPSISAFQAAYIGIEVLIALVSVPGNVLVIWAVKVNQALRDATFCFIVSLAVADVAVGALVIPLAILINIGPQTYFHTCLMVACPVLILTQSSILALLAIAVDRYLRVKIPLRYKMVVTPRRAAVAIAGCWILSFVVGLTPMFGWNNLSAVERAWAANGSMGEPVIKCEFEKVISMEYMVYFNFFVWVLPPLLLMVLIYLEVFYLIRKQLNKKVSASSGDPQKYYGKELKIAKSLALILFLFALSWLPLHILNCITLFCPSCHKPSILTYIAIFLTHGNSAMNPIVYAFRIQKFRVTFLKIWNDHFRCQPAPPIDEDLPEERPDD
# adenosine A1 receptor = molecular target: T3, adenosine A1 receptor (Homo sapiens, UniProt P30542); test: Radioligand competition binding, [3H]CCPA, membranes of transfected CHO cells; details: Ki A1 (curve of Figure 2), single experiment
# T3 sequence (P30542 1-326): T2 sequence (P30542 1-326)
# adenosine A2A receptor = adenosine A2A receptor (Homo sapiens, UniProt P29274); test: Radioligand competition binding, [3H]NECA, membranes of transfected CHO cells; details: Ki A2A (curve of Figure 2B), single experiment
# Sequence of adenosine A2A receptor (P29274 whole entry): as the sequence (P29274 whole entry) above
# A2B receptor = molecular target: T4, A2B receptor (Homo sapiens, UniProt P29275); test: A2B receptor-mediated adenylyl cyclase activity, CHO membranes; format: biochemical
# T4 sequence (P29275 1-332): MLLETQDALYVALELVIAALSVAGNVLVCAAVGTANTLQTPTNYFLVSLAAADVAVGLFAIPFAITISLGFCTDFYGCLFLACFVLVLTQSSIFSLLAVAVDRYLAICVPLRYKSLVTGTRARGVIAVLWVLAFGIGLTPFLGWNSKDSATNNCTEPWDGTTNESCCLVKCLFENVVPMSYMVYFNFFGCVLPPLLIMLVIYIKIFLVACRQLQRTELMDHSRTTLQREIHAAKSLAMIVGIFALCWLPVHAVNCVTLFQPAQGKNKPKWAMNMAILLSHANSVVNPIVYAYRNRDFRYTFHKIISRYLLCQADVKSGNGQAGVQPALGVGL
# [3] = hematopoietic cell transplant; ref Beitinjaneh et al. 2011, Chun et al. 1986, Ding et al. 2008; cited from earlier work
binding affinity in words [1],Ki [1] [µM],SMILES,Ki (adenosine A3 receptor) [µM],IC50 (A2A adenosine receptor) [µM],efficacy compared to the full agonist NECA (A2A adenosine receptor),agonist character at the A2A adenosine receptor (A2A adenosine receptor),IC50 (A1 receptor) [µM],maximal inhibition of forskolin-stimulated adenylyl cyclase (A1 receptor),Ki (adenosine A1 receptor) [µM],other results
no detectable affinity,–,"Nc1nc(F)nc2c1ncn2[C@@H]1O[C@H](COP(=O)(O)O)[C@@H](O)[C@@H]1O [Fludarabine monophosphate, 2-fluoroadenine-9-β-D-arabinofuranoside-5′phosphate]",–,–,–,–,–,–,–,–
–,–,"Nc1nc(Cl)nc2c1ncn2[C@H]1C[C@H](O)[C@@H](CO)O1 [cladribine, 2-chloro-2′-deoxyadenosine]",> 100,16.1,~40%,partial agonists,> 10,comparable to the full A1 receptor agonist CCPA,1.64,agonist character at adenosine receptor subtype A1 [2]: partial agonist
–,–,"Nc1nc(Cl)nc2c1ncn2[C@@H]1O[C@H](CO)[C@@H](O)[C@@H]1F [clofarabine, 2-chloro-2′-arabino-fluoro-2′-deoxyadenosine]",–,9.8,about 50%,partial agonists,–,comparable to the full A1 receptor agonist CCPA,0.248,"Ki (adenosine A2A receptor): 17.5 µM; Ki (adenosine A3 receptor; Ki A3 (curve of Figure 2B), [3H]HEMADO, single experiment): 8.28 µM; efficacy in decreasing adenylyl cyclase activity, comparison (A1 receptor; 10 μM, versus equivalent concentrations of fludarabine or cladribine): more efficacious; IC50 (A1 receptor; IC50 A1 agonist, adenylyl cyclase inhibition, values in text and abstract): 3.1 µM; EC50 (A2B receptor): > 100 µM"
no detectable affinity,> 100,"Nc1ccn([C@@H]2O[C@H](CO)[C@@H](O)[C@@H]2O)c(=O)n1 [cytarabine, cytosine β-D-arabinofuranoside]",–,–,–,–,–,–,–,–
–,–,"Nc1nc(F)nc2c1ncn2[C@@H]1O[C@H](CO)[C@@H](O)[C@@H]1O [fludarabine, 2-fluoroadenine-9-β-D-arabinofuranoside]",> 100,–,–,–,> 10,comparable to the full A1 receptor agonist CCPA,2.24,patients experiencing mild to severe neurological toxicities [3]: 2-10%
no detectable affinity,> 100,"Nc1ccn([C@@H]2O[C@H](CO)[C@@H](O)C2(F)F)c(=O)n1 [gemcitabine, 2′,2′-difluoro-2′-deoxycytidine]",–,–,–,–,–,–,–,–
